Reference: patent US8084500B2, “Method of using catalpic acid to treat dyslipidemia” (Nutrition Therapeutics, Inc., priority 2005, dated 2011)
Where two headings read alike, the source gives them in different places. Marks after values point to notes of the source that are not given here.

Tests used:
C57BL6 mice [1] = details: for White adipose tissue, g (abdominal) / Brown adipose tissue, g (interscapular) / Glucose (mg/dL), plasma fasting / Insulin (ng/mL), plasma fasting: C57BL6 mice, day 78; for White adipose tissue, g (abdominal): least squares mean
Text: In Western countries the Metabolic Syndrome or Syndrome X (i.e., diabetes, obesity, cardiovascular disease, hypertension and hyperlipidemia) is on a steady rise. […] A total of forty-seven C57BL6 mice were used in experiment 1. Twenty-five mice were fed a control diet and […] mice were fed a diet supplemented with catalpic acid (0.6 g catalpic acid/100 g food). For the first 32 days of the experiment all diets contained 7% fat, 0.02% total cholesterol, and they obtained 14.5% of calories from fat by replacing catalpic acid with linoleic acid (wt/wt basis) in the control diet.
These diets are defined as regular diets and were formulated to be isocaloric between treatment groups. On day 32 of the experiment, twenty mice within each group were fed high fat diets containing 19.6% fat, 0.2% total cholesterol that obtained 40.1% of calories from fat by replacing catalpic acid with lard (wt/wt basis) in the control high fat diet.
The high fat diets were also formulated to be isocaloric between treatment groups. The remaining mice within each group (n=5) were fed the regular diets. On day 78 of the experiment, mice were killed, and blood was collected and immediately analyzed for fasting glucose concentrations by using the Accu-Check Instant Plus System (Roche Diagnostics Corporation, Indianapolis, Ind.) or stored for subsequent analysis of insulin and lipid concentrations in plasma. Abdominal white adipose tissue and interscapular brown adipose tissue were collected, weighed and stored at −80° C. for RNA analyses. Liver, lungs, kidneys, pancreas and heart were examined for macroscopic abnormalities (gross lesions), fixed in phosphate-buffered formalin (10%) and processed for histological evaluation. All specimens were generally labeled with the following information: 1) mouse number; 2) date collected; 3) experiment number; 4) type of solvent; and 5) tissue type.
Serum insulin concentrations were determined by using commercially available enzyme-linked immunosorbent assay kits (Linco Research, St. Charles, Mo.).

C57BL6 mice [2] = tested on: C57BL6 mice
Procedure: A glucose tolerance test was conducted on day 78 of the experiment. Animals were fasted overnight (14 hours). Mice were injected intraperitoneally with D-glucose (1 g/kg body weight) and blood samples were collected via the tail vein prior to the injection (time 0) and at 15, 30 and 60 minutes following the injection.

db/db mice [3] = tested on: db/db mice
Procedure: Mice were purchased from Harlan (Indianapolis, Ind.). Following an acclimation period of 5 days on regular rodent chow they were fed purified, high fat diets that represented a modification of the AIN-93G rodent diet in which the nutritional requirements, including those for polyunsaturated fatty acids (PUFA), were met or exceeded.
Stock fatty acid solutions, e.g., soybean oil or catalpic acid were kept at −20° C. and nitrogen-purged every time that the bottles were opened. All the experimental diets contained the same amount of energy (isocaloric) and protein (isonitrogenous). To maintain the diets isocalorically, catalpic acid replaced soybean oil in the catalpic acid diet. We utilized male, db/db [BKS.Cg-+Lepr^db/+Lepr^db/OlaHsd (type 2 Diabetic)] mice (n=20) weighing 19.86 g on day 1 of the study. The db/db mice lack the long isoform of leptin receptor and represent a well-established model of type 2 Diabetes and are often utilized to determine the pre-clinical efficacy of antidiabetic drugs. Half of the mice were fed a control and the other half a catalpic acid-supplemented diet (1 g catalpa oil/100 g diet).
(§1) Mice were weighed on a daily basis and examined for clinical signs of disease by blinded observers. Water and feed intake were assessed on a daily basis. Fasting (12 h) glucose and insulin concentrations were determined on days 0, 7, 15, 21 and 28, of the study. Briefly, blood was collected via the caudal vein and placed onto capillary blood collection tubes. Insulin concentrations were determined by using a commercially available insulin enzyme-linked immunosorbent assay (ELISA) (Linco Research, St Charles, Mo.) per manufacturer's instructions. Mice were administered a glucose tolerance test and euthanized by CO2 narcosis on day 28 of the study. For the glucose tolerance test, animals were fasted overnight (12 hours), injected intraperitoneally with D-glucose (2 g/kg body weight) and blood samples were collected via the caudal vein prior to the injection (time 0) and at 15, 30, 60, 90, 120 and 180 minutes following the injection to determine the effect of CAT on the kinetics of glucose normalization.

db/db mice [4] = details: 0-180 min after glucose injection, all time points, FIG. 2B
Procedure: as §1

[5] = tested on: obese mice fed high-fat diets; details: CAT-supplemented high-fat diets
Procedure: Experiment 3 was conducted as described for Experiments 1 and 2 as indicated below except that determination of plasma lipid concentrations and quantitative real-time PCR were performed.
Serum HDL cholesterol concentrations were determined by using a commercial precipitation assay (Wako Diagnostics, Richmond, Va.) per the manufacturer's instructions.

PPAR alpha = details: for PPAR alpha mRNA expression in white adipose tissue: n = 10
Procedure: (§2) On day 28 or 78 of Experiments 1 and 2, visceral white adipose tissue (WAT) or pancreas samples were collected, stored in RNA later and frozen at −80° C. The dissection of intra-abdominal WAT was performed under magnification. RNA was isolated from WAT and pancreas specimens utilizing RNA isolation columns (Qiagen, Valencia, Calif.) per the manufacturer's instructions. RNA from the WAT was isolated using the Lipid Minikit (Qiagen). RNA was quantified using a μQuant microplate reader (Bio-TEK® Instruments, Inc., Winooski, Vt.). Briefly, total RNA (1 μg) from each sample was used to generate complementary DNA (cDNA) template using the iScript cDNA Synthesis Kit (Bio-Rad, Hercules, Calif.). The total reaction volume was 20 μl. The reaction was incubated as follows in a Tetrad Thermocycler (MJResearch, Waltham, Mass.): 5 minutes at 25° C., 30 minutes at 42° C., 5 minutes at 85° C., hold at 4° C. cDNA products were diluted 1:10 in diethylpyrocarbonate-treated water. Controls were also performed with no RNA template (no template) and omitting the reverse transcriptase enzyme (no RT).
(§3) The PCR primer pairs were designed based on previously published sequences (GenBank) using the Oligo 6 primer design software (Molecular Biology Insights, Cascade, Colo.). The PCR primer pair sequences, annealing temperatures, accession numbers and PCR product lengths are outlined in Table 5. […] Each gene amplicon was purified by using the MiniElute PCR Purification kit (Qiagen). The purified amplicon for each gene was quantified on an agarose gel using a DNA mass ladder. These purified amplicons were further used to optimize the real-time PCR conditions and to generate the standard curves in the real-time PCR assay. Primer concentrations and annealing temperatures were optimized for the iCycler iQ System (Bio-Rad) for each set of primers using the system's gradient protocol.
(§4) Messenger RNA (mRNA) expression of peroxisome proliferator-activated receptor (PPAR) gamma, PPAR alpha, and PPAR delta was determined in adipose tissue. […] Therefore, we also examined the expression of four PPAR alpha-responsive genes in WAT, including acyl-coenzyme A dehydrogenase (ACDH), stearoyl-coenzyme A desaturase (SCD1), enoyl-coenzyme A hydratase (ECH) and carnitine palmitoyl transferase-1 (Cpt-1).
(§5) Transcript expression was examined by real-time, quantitative PCR by using an iCycler iQ System and the iQ SYBR Green Supermix (Bio-Rad). Real-time PCR was used to measure the starting amount of nucleic acid by assaying each unknown starting quantity of cDNA on a 96-well plate. For each gene, the results were calculated as starting quantity of cDNA (picograms) per microgram of RNA.

PPAR gamma = details: C57BL/6J wild-type mice, 78 days, n = 10
Procedure: as §2, §3, §4, §5

[6] = tested on: enoyl-coenzyme A hydratase (ECH); details: n = 10
Procedure: as §2, §3, §4, §5

[7] = tested on: stearoyl-coenzyme A desaturase (SCD1); details: n = 10
Procedure: as §2, §3, §4, §5

[8] = high fat diets, CAT-supplemented
[9] = regular diets, CAT-supplemented
[10] = C57BL/6J wild-type mice, 78 days

Procedure for PPAR delta: On day 28 or 78 of Experiments 1 and 2, visceral white adipose tissue (WAT) or pancreas samples were collected, stored in RNA later and frozen at −80° C. The dissection of intra-abdominal WAT was performed under magnification. RNA was isolated from WAT and pancreas specimens utilizing RNA isolation columns (Qiagen, Valencia, Calif.) per the manufacturer's instructions. RNA from the WAT was isolated using the Lipid Minikit (Qiagen). RNA was quantified using a μQuant microplate reader (Bio-TEK® Instruments, Inc., Winooski, Vt.). Briefly, total RNA (1 μg) from each sample was used to generate complementary DNA (cDNA) template using the iScript cDNA Synthesis Kit (Bio-Rad, Hercules, Calif.). The total reaction volume was 20 μl. […]
The PCR primer pairs were designed based on previously published sequences (GenBank) using the Oligo 6 primer design software (Molecular Biology Insights, Cascade, Colo.). […] The purified amplicon for each gene was quantified on an agarose gel using a DNA mass ladder. […]
Messenger RNA (mRNA) expression of peroxisome proliferator-activated receptor (PPAR) gamma, PPAR alpha, and PPAR delta was determined in adipose tissue. Based on the patterns of expression of the nuclear receptors in each tissue, the expression of a relevant panel of responsive genes was evaluated by quantitative real-time PCR. […]

fatty liver or enlarged viscera (C57BL6 mice [1]; mice fed catalpic acid-supplemented diets, Experiment 1): not observed
feed intake versus control (db/db mice [3]; high fat diet, FIG. 4B): No differences
Structure (SMILES): CCCC\C=C/C=C/C=C/CCCCCCCC(=O)O [CAT, catalpic acid]
White adipose tissue, g (abdominal) (C57BL6 mice [1]; high fat diets from day 32, CAT-supplemented): 0.607^b g
Brown adipose tissue, g (interscapular) (C57BL6 mice [1]; [8]): 0.105 g
Glucose (mg/dL), plasma fasting (C57BL6 mice [1]; [8]): 205.43^b mg/dL
Insulin (ng/mL), plasma fasting (C57BL6 mice [1]; [8]): 0.730^b ng/mL
Brown adipose tissue, g (interscapular) (C57BL6 mice [1]; [9]): 0.169 g
Glucose (mg/dL), plasma fasting (C57BL6 mice [1]; [9]): 146.20^b mg/dL
Insulin (ng/mL), plasma fasting (C57BL6 mice [1]; [9]): 0.960^b ng/mL
White adipose tissue, g (abdominal) (C57BL6 mice [1]; [9]): 0.751^b g
glucose tolerance versus control (C57BL6 mice [2]; mice fed high fat diets, FIG. 1B): normalizes impaired glucose tolerance
glucose tolerance versus control (C57BL6 mice [2]; mice fed regular diets, FIG. 1A): not different
difference in WAT weight between groups attributable to catalpic acid (db/db mice [3]; day 28): over 10%
abdominal WAT weight versus control (db/db mice [3]; day 28, FIG. 5): significantly lower
body weight versus control (db/db mice [3]; high fat diet, FIG. 4A): No differences
glucose concentrations (db/db mice [3]; high fat diet, day 28 (control 425 mg/dl)): 290 mg/dL
fasting plasma insulin concentrations (db/db mice [3]; high fat diet, days 0-28, remained at basal levels, FIG. 3): lower than 4 ng/ml
fasting plasma glucose versus high fat control diet (db/db mice [3]; high fat diet, days 14, 21 and 28, P<0.05, FIG. 2A): lower
glucose normalizing ability versus control (db/db mice [4]): greater
plasma triglyceride concentrations versus control high-fat diet ([5]; mice, FIG. 6B): lower
HDL cholesterol concentrations versus control high-fat diet ([5]; obese mice, FIG. 6A): greater
PPAR alpha mRNA expression in white adipose tissue (PPAR alpha; [10]): 0.005^a picograms of starting cDNA per microgram of white adipose tissue total RNA
PPAR alpha mRNA expression in white adipose tissue (PPAR alpha; db/db mice, 28 days): 0.0052^a picograms of starting cDNA per microgram of white adipose tissue total RNA
pancreatic concentrations of PPAR alpha and its responsive genes (PPAR alpha; pancreas of CAT-fed mice): unchanged
PPAR gamma mRNA expression in white adipose tissue (PPAR gamma): 0.074 picograms of starting cDNA per microgram of white adipose tissue total RNA
Enoyl CoA Hydratase mRNA expression in white adipose tissue [6, 10]: 0.0039^a picograms of starting cDNA per microgram of white adipose tissue total RNA
Enoyl CoA Hydratase mRNA expression in white adipose tissue ([6]; db/db mice, 28 days): 0.0024 picograms of starting cDNA per microgram of white adipose tissue total RNA
Stearoyl CoA Desaturase mRNA expression in white adipose tissue [7, 10]: 0.130^a picograms of starting cDNA per microgram of white adipose tissue total RNA
Stearoyl CoA Desaturase mRNA expression in white adipose tissue ([7]; db/db mice, 28 days): 0.095^a picograms of starting cDNA per microgram of white adipose tissue total RNA
PPAR delta mRNA expression in white adipose tissue (PPAR delta; C57BL/6J wild-type mice, 78 days, n = 10): 0.007 picograms of starting cDNA per microgram of white adipose tissue total RNA
PPAR delta expression in the pancreas (PPAR delta; pancreas of CAT-fed mice, P<0.04): 0.069
